# Read-outs that look alike come from different tables or passages of the source.
# Columns and labels:
# Streptococcus pneumoniae = experiment: Susceptibility testing (MIC) Assay 1, broth microdilution; format: cell-based
# Staphylococcus aureus = experiment: as above; format: cell-based; conditions: Staphylococcus aureus
# Streptococcus pyogenes = experiment: as above; format: cell-based; conditions: Streptococcus pyogenes, in vivo strain, read-out: Spy MIC
# [1] = molecular target: Escherichia coli DNA gyrase A/B tetramer (Escherichia coli (strain K12), UniProt P0AES4+P0AES6); experiment: DNA gyrase supercoiling activity fluorescence polarisation assay; format: biochemical; conditions: Eco Gyr FP Mean IC50, E. coli DNA gyrase supercoiling, 0.3 mM ATP
# In short: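 Relaxed triplex-forming plasmid (130 micrograms/mL) supercoiled by 5 nM gyrase A/B tetramer in Tris-HCl pH 7.5 buffer with 4 mM MgCl2 and 0.3 mM ATP, ~30 min, ambient temperature. Quenched with 5′-BODIPY-FL triplex probe at pH 3.5; fluorescence anisotropy read after 60 min. IC50 by nonlinear regression against two control reactions.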
# Haemophilus influenzae = experiment: Susceptibility testing (MIC) Assay 2, broth microdilution; format: cell-based
# Klebsiella pneumoniae = experiment: as above; format: cell-based
# Escherichia coli = experiment: as above; format: cell-based
# Pseudomonas aeruginosa = experiment: as above; format: cell-based; conditions: PAO1, read-out: Pae MIC
# Neisseria gonorrhoeae = experiment: MIC against 100 N. gonorrhoeae isolates, CLSI reference agar dilution; format: cell-based; conditions: all 100 N. gonorrhoeae isolates
# [2] = system: 7 S. aureus strains and 1 strain of Streptococcus pyogenes; experiment: Minimum bactericidal concentration (MBC); format: cell-based, Staphylococcus aureus; Streptococcus pyogenes; conditions: 7 S. aureus strains and 1 S. pyogenes strain
# [3] = system: variants of S. aureus and S. pyogenes ARC838; experiment: Susceptibility of Example 5 serial-passage variants to comparators; format: cell-based, Staphylococcus aureus; Streptococcus pyogenes; conditions: variants after twenty passages with Example 5
# [4] = in vivo strain (footnote b), read-out: Spn(b) MIC
# [5] = in vivo strain (footnote c), read-out: Spn(c) MIC
# [6] = Staphylococcus aureus in vivo strain, MSQS, read-out: Sau(d) MIC
# [7] = in vivo strain, MRQR, read-out: Sau(e) MIC
# [8] = ATCC51907, Haemophilus influenzae, ATCC 51907, in vivo strain, read-out: Hin MIC
# [9] = clinical isolate, mucoid, read-out: Kpn MIC
# [10] = ATCC49619, Streptococcus pneumoniae, ATCC 49619, read-out: Spn(c) MIC
# [11] = in vivo strain, read-out: Spn(b) MIC
# [12] = ATCC29213, Staphylococcus aureus, in vivo strain, ATCC 29213, read-out: Sau(d) MIC
# [13] = MRSA, in vivo strain, MRSA, read-out: Sau(f) MIC
# [14] = ATCC49247, Haemophilus influenzae, ATCC 49247, read-out: Hin MIC
# [15] = ATCC700603, ATCC 700603, read-out: Kpn(e) MIC
# [16] = clinical isolate, mucoid, read-out: Kpn(d) MIC
# [17] = ATCC25922, Escherichia coli, in vivo strain, ATCC 25922, read-out: Eco(b) MIC
# [18] = ATCC35218, Escherichia coli, ATCC 35218, read-out: Eco(c) MIC
# [19] = Neisseria gonorrhoeae, read-out: MIC50
# [20] = Neisseria gonorrhoeae, read-out: MIC90
smiles,measurement,setting,value
"C[C@@H]1CN2c3c(cc4c(N5C[C@@H](C#N)OC5=O)noc4c3F)CC3(C(=O)NC(=O)NC3=O)[C@H]2[C@H](C)O1 [Example 76, (5S)-3-[(2R,4S,4aS)-11-fluoro-2,4-dimethyl-2′,4′,6′-trioxo-1,1′,2,3′,4,4′,4a,6′-octahydro-2′H,6H-spiro[1,4-oxazino[4,3-a][1,2]oxazolo[4,5-g]quinoline-5,5′-pyrimidin]-8-yl]-2-oxo-1,3-oxazolidine-5-carbonitrile]",MIC,Streptococcus pneumoniae; [4],0.39 µM
same,MIC,Streptococcus pneumoniae; [5],0.78 µM
same,MIC,Staphylococcus aureus; [6],0.39 µM
same,MIC,Staphylococcus aureus; [7],1.6 µM
same,MIC,"Staphylococcus aureus; serum, read-out: Sau(f) MIC",0.78 µM
same,MIC,Streptococcus pyogenes; Streptococcus pyrgenes,0.39 µM
same,IC50,[1],550 nM
same,MIC,Haemophilus influenzae; [8],0.78 µM
same,MIC,Klebsiella pneumoniae; [9],> 200 µM
same,MIC,"Escherichia coli; K12, read-out: Eco MIC",50 µM
same,MIC,Pseudomonas aeruginosa,> 200 µM
C[C@@H]1CN2c3c(cc4c(N5C(=O)OC[C@@H]5[C@@H](C)O)noc4c3F)CC3(C(=O)NC(=O)NC3=O)[C@H]2[C@H](C)O1 [Example 77],MIC,Streptococcus pneumoniae; [4],0.78 µM
same,MIC,Streptococcus pneumoniae; [5],0.78 µM
same,MIC,Staphylococcus aureus; [6],3.1 µM
same,MIC,Staphylococcus aureus; [7],12 µM
same,MIC,"Staphylococcus aureus; serum, read-out: Sau(f) MIC",6.2 µM
same,MIC,Streptococcus pyogenes; Streptococcus pyrgenes,0.78 µM
same,IC50,[1],530 nM
same,MIC,Haemophilus influenzae; [8],0.78 µM
same,MIC,Klebsiella pneumoniae; [9],> 200 µM
same,MIC,"Escherichia coli; K12, read-out: Eco MIC",200 µM
same,MIC,Pseudomonas aeruginosa,> 200 µM
"C[C@@H]1CN2c3c(cc4c(N5C(=O)O[C@H](C)[C@@H]5CF)noc4c3F)CC3(C(=O)NC(=O)NC3=O)[C@H]2[C@H](C)O1 [Example 78, (2R,4S,4aS)-11-Fluoro-8-((4R,5R)-4-(fluoromethyl)-5-methyl-2-oxooxazolidin-3-yl)-2,4-dimethyl-2,4,4a,6-tetrahydro-1H,1′H-spiro[isoxazolo[4,5-g][1,4]oxazino[4,3-a]quinoline-5,5′-pyrimidine]-2′,4′,6′(3′H)-trione]",MIC,Streptococcus pneumoniae; [10],2 µg/mL
same,MIC,Streptococcus pneumoniae; [11],2 µg/mL
same,MIC,Staphylococcus aureus; [12],1 µg/mL
same,MIC,Staphylococcus aureus; [13],1 µg/mL
same,MIC,Staphylococcus aureus; [7],2 µg/mL
same,MIC,Streptococcus pyogenes; Streptococcus pyrogenes,1 µg/mL
same,IC50,[1],440 nM
same,MIC,Haemophilus influenzae; [14],2 µg/mL
same,MIC,Klebsiella pneumoniae; [15],> 64 µg/mL
same,MIC,Klebsiella pneumoniae; [16],> 64 µg/mL
same,MIC,Escherichia coli; [17],16 µg/mL
same,MIC,Escherichia coli; [18],32 µg/mL
same,MIC,Pseudomonas aeruginosa; Pseudomonoas aeruginosa,> 64 µg/mL
"COC[C@H]1[C@@H](C)OC(=O)N1c1noc2c(F)c3c(cc12)CC1(C(=O)NC(=O)NC1=O)[C@H]1[C@H](C)O[C@H](C)CN31 [Example 79, (2R,4S,4aS)-11-fluoro-8-((4S,5R)-4-(methoxymethyl)-5-methyl-2-oxooxazolidin-3-yl)-2,4-dimethyl-2,4,4a,6-tetrahydro-1H,1′H-spiro[isoxazolo[4,5-g][1,4]oxazino[4,3-a]quinoline-5,5′-pyrimidine]-2′,4′,6′(3′H)-trione]",MIC,Streptococcus pneumoniae; [10],1 µg/mL
same,MIC,Streptococcus pneumoniae; [11],2 µg/mL
same,MIC,Staphylococcus aureus; [12],1 µg/mL
same,MIC,Staphylococcus aureus; [13],1 µg/mL
same,MIC,Staphylococcus aureus; [7],2 µg/mL
same,MIC,Streptococcus pyogenes; Streptococcus pyrogenes,1 µg/mL
same,IC50,[1],> 2100 nM
same,MIC,Haemophilus influenzae; [14],0.5 µg/mL
same,MIC,Klebsiella pneumoniae; [15],> 64 µg/mL
same,MIC,Klebsiella pneumoniae; [16],> 64 µg/mL
same,MIC,Escherichia coli; [17],32 µg/mL
same,MIC,Escherichia coli; [18],64 µg/mL
same,MIC,Pseudomonas aeruginosa; Pseudomonoas aeruginosa,> 64 µg/mL
"COC[C@@H]1[C@@H](C)OC(=O)N1c1noc2c(F)c3c(cc12)CC1(C(=O)NC(=O)NC1=O)[C@H]1[C@H](C)O[C@H](C)CN31 [Example 80, (2R,4S,4aS)-11-fluoro-8-((4R,5R)-4-(methoxymethyl)-5-methyl-2-oxooxazolidin-3-yl)-2,4-dimethyl-2,4,4a,6-tetrahydro-1H,1′H-spiro[isoxazolo[4,5-g][1,4]oxazino[4,3-a]quinoline-5,5′-pyrimidine]-2′,4′,6′(3′H)-trione]",MIC,Streptococcus pneumoniae; [10],32 µg/mL
same,MIC,Streptococcus pneumoniae; [11],64 µg/mL
same,MIC,Staphylococcus aureus; [12],16 µg/mL
same,MIC,Staphylococcus aureus; [13],16 µg/mL
same,MIC,Staphylococcus aureus; [7],32 µg/mL
same,MIC,Streptococcus pyogenes; Streptococcus pyrogenes,16 µg/mL
same,IC50,[1],170 nM
same,MIC,Haemophilus influenzae; [14],1 µg/mL
same,MIC,Klebsiella pneumoniae; [15],> 64 µg/mL
same,MIC,Klebsiella pneumoniae; [16],> 64 µg/mL
same,MIC,Escherichia coli; [17],> 64 µg/mL
same,MIC,Escherichia coli; [18],> 64 µg/mL
same,MIC,Pseudomonas aeruginosa; Pseudomonoas aeruginosa,> 64 µg/mL
"CC[C@H]1OC(=O)[C@H](C)[C@@H](O[C@H]2C[C@@](C)(OC)[C@@H](O)[C@H](C)O2)[C@H](C)[C@@H](O[C@@H]2O[C@H](C)C[C@H](N(C)C)[C@H]2O)[C@](C)(O)C[C@@H](C)CN(C)[C@H](C)[C@@H](O)[C@]1(C)O [azithromycin, reference compound]",MIC50,Neisseria gonorrhoeae; [19],0.25 µg/mL
same,MIC90,Neisseria gonorrhoeae; [20],0.5 µg/mL
"C=CC1=C(C(=O)O)N2C(=O)[C@@H](NC(=O)/C(=N\OCC(=O)O)c3csc(N)n3)[C@H]2SC1 [cefixime, reference compound]",MIC50,Neisseria gonorrhoeae,0.03 µg/mL
same,MIC90,Neisseria gonorrhoeae,0.06 µg/mL
"CO/N=C(\C(=O)N[C@@H]1C(=O)N2C(C(=O)O)=C(CSc3nc(=O)c(O)nn3C)CS[C@H]12)c1csc(N)n1 [ceftriaxone, reference compound]",MIC50,Neisseria gonorrhoeae,0.015 µg/mL
"CO/N=C(\C(=O)N[C@@H]1C(=O)N2C(C(=O)O)=C(CSc3nc(=O)c(O)nn3C)CS[C@H]12)c1csc(N)n1 [ceftriazone, reference compound]",MIC90,Neisseria gonorrhoeae,0.06 µg/mL
C[C@H]1COc2c(N3CCN(C)CC3)c(F)cc3c(=O)c(C(=O)O)cn1c23 [levofloxacin],minimum bactericidal concentrations (MBCs) relative to the MIC,[2],≤ 2 fold
same,change in susceptibility of Example 5-selected variants,[3],≤ 4 fold
CC(=O)NC[C@H]1CN(c2ccc(N3CCOCC3)c(F)c2)C(=O)O1 [linezolid],change in susceptibility of Example 5-selected variants,[3],≤ 4 fold
"CC1(C)S[C@@H]2[C@H](NC(=O)Cc3ccccc3)C(=O)N2[C@H]1C(=O)O [penicillin, reference compound]",MIC50,Neisseria gonorrhoeae; [19],2 µg/mL
same,MIC90,Neisseria gonorrhoeae; [20],> 2 µg/mL
"CN(C)[C@@H]1C(=O)C(C(N)=O)=C(O)[C@@]2(O)C(=O)C3=C(O)c4c(O)cccc4[C@@](C)(O)[C@H]3C[C@@H]12 [tetracycline, reference compound]",MIC50,Neisseria gonorrhoeae,1 µg/mL
same,MIC90,Neisseria gonorrhoeae,2 µg/mL
CN[C@H](CC(C)C)C(=O)N[C@H]1C(=O)N[C@@H](CC(N)=O)C(=O)N[C@H]2C(=O)N[C@H]3C(=O)N[C@H](C(=O)N[C@H](C(=O)O)c4cc(O)cc(O)c4-c4cc3ccc4O)[C@H](O)c3ccc(c(Cl)c3)Oc3cc2cc(c3O[C@@H]2O[C@H](CO)[C@@H](O)[C@H](O)[C@H]2O[C@H]2C[C@](C)(N)[C@H](O)[C@H](C)O2)Oc2ccc(cc2Cl)[C@H]1O [vancomycin],minimum bactericidal concentrations (MBCs) relative to the MIC,[2],≤ 2 fold
same,change in susceptibility of Example 5-selected variants,[3],≤ 4 fold
